Measurements from the supplement of paper PMC10307832.

Key:
Assay in all cases: relative viability (nuclei count vs DMSO), 5 days (fraction); higher = more cells survive
Ricolinostat + OSI-027 = compound: O=C(CCCCCCNC(=O)c1cnc(N(c2ccccc2)c2ccccc2)nc1)NO [Ricolinostat] + COc1cccc2cc(-c3nc([C@H]4CC[C@H](C(=O)O)CC4)n4ncnc(N)c34)[nH]c12 [OSI-027] (partner 0.5 µM)
How it was run: (§1)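 Medians of duplicate plates are given as relative viability. That measure is the nuclei count in treated wells divided by the count in vehicle wells. Counts were taken on 4× images of lung cancer cell lines in 1536-well plates, 5 days after pin-tool dosing the day after seeding with one drug alone or a fixed anchor-drug dose plus five library-drug doses (not always all listed) in √10 steps.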

[1] = compound: O=C(CCCCCCNC(=O)c1cnc(N(c2ccccc2)c2ccccc2)nc1)NO [Ricolinostat] + C[C@@H](Oc1cc(-c2cnn(C3CCNCC3)c2)cnc1N)c1c(Cl)ccc(F)c1Cl [Crizotinib] (partner 1 µM)
How it was run: as §1

[2] = compound: C1=CC=C(C(=C1)C2=CC=C(C=C2)C3=CSC4=C3C(=C(C(=O)N4)C#N)O)O + O=C(CCCCCCC(=O)Nc1ccccc1)NO [Vorinostat] (partner 1 µM)
How it was run: as §1

Cell Line	relative viability (Ricolinostat + OSI-027; first compound 0.253 µM)	relative viability (Ricolinostat + OSI-027; first compound 0.8 µM)	relative viability (Ricolinostat + OSI-027; first compound 2.53 µM)	relative viability ([1]; first compound 0.253 µM)	relative viability ([1]; first compound 0.8 µM)	relative viability ([1]; first compound 2.53 µM)	relative viability ([2]; first compound 0.08 µM)	relative viability ([2]; first compound 0.253 µM)	relative viability ([2]; first compound 0.8 µM)	relative viability ([2]; first compound 2.53 µM)	relative viability ([2]; first compound 8 µM)	relative viability ([1]; first compound 0.08 µM)	relative viability (Ricolinostat + OSI-027; first compound 0.08 µM)
NCI-H322M	0.598	0.532	0.51	0.913	0.818	0.751	0.841	0.756	0.817	0.865	0.855	–	–
NCI-H441	0.725	0.595	0.59	0.625	0.615	0.633	0.551	0.812	0.858	0.818	0.742	0.587	–
EMC-BAC-2	0.363	0.343	0.271	0.698	0.695	0.681	0.463	–	0.331	0.435	0.362	0.697	0.353
HARA	0.479	0.401	0.175	0.948	0.926	0.712	–	0.792	0.701	–	0.371	0.925	0.295
NCI-H727	0.671	0.551	0.657	0.782	0.802	0.704	1.38	1.26	1.24	1.21	1.05	0.748	0.389
NCI-H1944	0.405	0.34	0.292	0.95	0.878	0.58	0.682	0.637	0.571	0.479	0.478	1.02	0.321
COR-L 105	0.641	0.72	0.731	0.854	0.643	0.646	0.763	0.807	0.805	1.01	0.706	0.669	–
201T	0.707	0.7	0.92	1.04	1.08	1.07	0.874	0.952	0.811	1	0.902	0.926	0.631
NCI-H460	0.637	0.622	0.596	0.924	0.84	0.645	0.529	0.339	0.866	0.924	0.582	1.01	0.507
LOU-NH91	0.713	0.672	0.647	0.738	0.734	0.783	0.892	0.926	0.888	0.886	0.848	–	0.511
NCI-H2170	0.718	0.725	0.891	1.17	1.16	1.23	0.9	0.819	0.921	0.778	0.616	1.16	0.656
LU99A	0.296	0.305	0.249	0.604	0.38	0.409	0.501	0.478	0.702	0.49	0.425	0.581	0.243
ChaGo-K-1	0.606	0.539	0.471	1.08	1.05	0.997	0.733	0.821	0.801	0.822	0.683	1.13	0.656
